Experimental data published in US8138191B2, “Inhibitor compounds and cancer treatment methods” (Critical Outcome Technologies Inc., priority 2007, dated 2012).

Key:
H226 = assay: in vitro IC50 against cancer cell lines, H226; assay type: cell-based; details: Homo sapiens, NCI-H226, 72 h; H226, NSCLC, 3 days
Experimental: Briefly, cells were plated in plastic tissue culture plates and grown under standard conditions for each cell line, in carbon dioxide/oxygen atmosphere in plastic tissue culture plates, in the presence of COTI-2 or COTI-219 compounds at 35° C. for 3 days. Control cultures were treated with vehicle minus compound. Cells were counted after 3 days in culture and at a cell density of no more than 80%. The following cell lines, obtained from the National Cancer Institute, were tested: human SCLC cell lines DMS153, DMS114, SHP77; human NSCLC cell lines H226, A460, A560; human breast cancer cell lines T47D, MCF7; human colon cancer cell line HT29; and, human Leukemia cell lines K562, HL60.

[1] = tested on: normal human peripheral blood mononuclear cells (PBMCs); assay: Flow cytometric analysis of cell death (Annexin V/PI), PBMCs; assay type: cell-based; details: PBMC, PBMCs from healthy male and female subjects
Experimental: All cell lines were grown and exposed to various concentrations of COTI-2 or vehicle only control and the percentage of dead or dying cells were determined 24 and 48 h post-exposure by Annexin V and propidium iodide.
Blood samples from 2 healthy human volunteers (person) were obtained in 5 ml Vacutainers® containing 100 USP sodium heparin (Becton Dickinson, Franklin Lake, N.J.) and rocked gently to mix, then kept at room temperature. Blood was diluted 1:1 with phosphate buffered saline (PBS) and layered over an equal volume of room temperature Histopaque-1083® (Sigma Diagnostics, St. Louis, Mo.) in a 15 ml conical bottom polyethylene (PET) centrifuge tube (Corning Corporation, Corning, N.Y.). This was centrifuged at 400×g for 30 minutes at 20° C. […]
Cells were plated in 25-cm^2 flasks and treated with COTI-2 (0-100 μM) added from a stock DMSO/DMEM solution such that DMSO concentrations never exceeded 0.5%. […] Resuspended cells (100 μl) were incubated in the dark with 10 μl propidium iodide (PI, 50 ng per ml; Sigma, St. Louis, Mo.) plus Annexin V-FITC (25 ng per ml, green fluorescence; BD Biosciences, Mississauga, Ontario). […] Samples were analyzed for combined Annexin V/PI staining (to assess dead plus apoptotic cells) using a Beckman Coulter EPCS XL-MCL flow cytometer (Beckman Coulter, Hileah, Fla.) and the data were analyzed with CellQuest software.

[2] = A-B Permeability (TC7, pH 7.4/7.4) + verapamil; assay type: in vitro ADME; details: human, Caco-2, pH 7.4, with verapamil (concentration not stated), 1.0E−05 M
[3] = B-A Permeability (TC7, pH 7.4/7.4) + verapamil; assay type: in vitro ADME; details: human, Caco-2, pH 7.4, with verapamil (concentration not stated), 1.0E−05 M
CYP3A = CYP3A (Homo sapiens, UniProt P08684); assay: in vitro; details: both
Sequence of CYP3A (P08684 2-503): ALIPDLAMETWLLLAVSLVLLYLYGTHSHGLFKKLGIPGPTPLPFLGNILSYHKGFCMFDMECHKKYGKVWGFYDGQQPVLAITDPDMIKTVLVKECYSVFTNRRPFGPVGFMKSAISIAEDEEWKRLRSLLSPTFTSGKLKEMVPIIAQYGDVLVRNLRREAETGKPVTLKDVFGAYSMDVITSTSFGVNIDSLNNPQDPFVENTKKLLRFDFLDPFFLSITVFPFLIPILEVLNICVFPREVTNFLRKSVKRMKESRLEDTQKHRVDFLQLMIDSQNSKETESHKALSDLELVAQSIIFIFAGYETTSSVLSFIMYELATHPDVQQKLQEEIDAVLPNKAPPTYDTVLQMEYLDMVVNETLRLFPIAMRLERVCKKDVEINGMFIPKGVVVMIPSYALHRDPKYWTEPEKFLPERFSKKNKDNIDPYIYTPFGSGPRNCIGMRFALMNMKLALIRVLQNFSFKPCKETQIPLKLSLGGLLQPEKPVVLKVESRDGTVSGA

[4] = tested on: Akt kinase activity in SHP-77 cells; assay: Akt kinase activity (immunoprecipitated Akt, GSK-3 phosphorylation), SHP-77; details: SHP-77, 250 nM, 2-24 hrs
DMS114 cells = assay: siRNA target knock-down with COTI-219, cell viability by trypan blue, DMS114; assay type: cell-based, human; details: DMS114, 500 nM, 48 h
Experimental: In brief, cells DMS114 and SHP77 cells were transfected with gene specific siRNA in the presence or absence of COTI-219 and cell viability determined after 24 to 48 h post-incubation using the trypan blue exclusion method.
Cell cultures were maintained under regular tissue culture conditions and passaged 1-2 times a week as recommended by ATCC. With the exception of the siRNA for Bim (Signal Silence Bim siRNA kit #6460 from Cell Signaling), all other siRNA reagents for gene knock-down experiments was obtained from Ambion (Silencer Negative Control #1 siRNA #AM4611, CDK2 Silencer Select #s204, HRAS Silencer Select #s807, Protein kinase C alpha Silencer Validated #301, MAPK3/Erk Silencer Pre-designed #214749, EGFR Silencer Select #s563, and ERBB2 Silencer Select #s611). […] The transfection method required optimization such that a knock-down of the target gene greater than ˜75% was achieved and confirmed by western blot analyses. […] Following an optimal knock-down level at >75%, 2×10^5 cells were incubated with 500 nM COTI-219 and number of viable cells was measured at 48 h.
Cell viability assays were performed 24 to 48 h following incubation with COTI-219 by the trypan blue exclusion method using a Beckman-Coulter Vi-CELL XR 2.03 automated cell counter. Routine laboratory methods were employed for the production of cellular lysates, protein quantitation, SDS-PAGE and western blotting. […]

[5] = 1st determination, read-out: Percent Recovery 1st
[6] = 2nd determination, read-out: Percent Recovery 2nd
[7] = mean, read-out: Percent Recovery Mean

**Q.** With `S=C(N/N=C1/CCCc2cccnc21)N1CCN(c2ccccn2)CC1` [COTI-2] as the molecule, how does the IC50 (H226) read?
**A.** 15 µM

**Q.** And the IC50 [1]?
**A.** > 100 µM

**Q.** What about the recovery at 10 µM [2, 5] of the same molecule?
**A.** 17%

**Q.** And the recovery at 10 µM [2, 6]?
**A.** 13%

**Q.** What about the recovery at 10 µM [2, 7] of the same molecule?
**A.** 15%

**Q.** And the recovery at 10 µM [3, 5]?
**A.** 49%

**Q.** What about the recovery at 10 µM [3, 6] of the same molecule?
**A.** 46%

**Q.** And the recovery at 10 µM [3, 7]?
**A.** 47%

**Q.** What about the inhibition at 15 min, 10 µM (CYP3A; human liver microsomes, pH 7.4, probe midazolam (10 µM)) of the same molecule?
**A.** 7%

**Q.** What about the inhibition at 15 min, 10 µM (CYP3A; liver microsomes, pH 7.4, probe midazolam) of the same molecule?
**A.** < 50%

**Q.** What about the Akt kinase activity [4] of the same molecule?
**A.** more gradual decrease

**Q.** For `CN1CCN(C(=S)NN=C2c3ncccc3-c3cccnc32)CC1` [COTI-219], which “target knock-downs suppressing the action of COTI-219 on apoptosis/cell growth” value (DMS114 cells) is on record?
**A.** only the Ras knock-down was able to suppress the action of COTI-219
